Assay [1] has as its target Serine/threonine-protein kinase PLK2 (Homo sapiens) (UniProt Q9NYY3). The experiment in a line: Inhibition of PLK2 (unknown origin) at 10 uM after 120 mins P33 radiolabeled kinase activity assay.
In assay [2] the target is T1, Inhibitor of nuclear factor kappa-B kinase subunit epsilon (Homo sapiens) (UniProt Q14164).
T1 sequence (whole entry): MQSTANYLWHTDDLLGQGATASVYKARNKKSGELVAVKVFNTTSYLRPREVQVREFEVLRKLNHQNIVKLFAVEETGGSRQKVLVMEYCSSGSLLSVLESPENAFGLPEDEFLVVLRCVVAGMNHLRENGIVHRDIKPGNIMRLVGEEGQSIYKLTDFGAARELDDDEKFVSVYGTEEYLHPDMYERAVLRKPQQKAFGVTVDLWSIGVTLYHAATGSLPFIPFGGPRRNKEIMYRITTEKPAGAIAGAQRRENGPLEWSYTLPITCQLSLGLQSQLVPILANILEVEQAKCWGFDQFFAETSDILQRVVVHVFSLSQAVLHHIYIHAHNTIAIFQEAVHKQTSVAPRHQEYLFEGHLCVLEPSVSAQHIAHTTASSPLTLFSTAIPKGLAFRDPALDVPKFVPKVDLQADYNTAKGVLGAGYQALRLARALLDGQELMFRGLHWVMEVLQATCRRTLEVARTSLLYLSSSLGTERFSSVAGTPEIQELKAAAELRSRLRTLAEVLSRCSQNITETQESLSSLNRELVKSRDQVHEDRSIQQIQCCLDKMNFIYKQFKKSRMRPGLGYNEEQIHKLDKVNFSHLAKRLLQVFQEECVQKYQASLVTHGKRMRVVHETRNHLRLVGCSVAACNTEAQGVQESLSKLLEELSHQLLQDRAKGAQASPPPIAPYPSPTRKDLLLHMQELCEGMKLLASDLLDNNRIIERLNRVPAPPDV
Description: Inhibition of IKKepsilon (unknown origin) at 10 uM after 120 mins P33 radiolabeled kinase activity assay.

Assay [3] has as its target T2, Serine/threonine-protein kinase TAO3 (Homo sapiens) (UniProt Q9H2K8).
T2 sequence (whole entry): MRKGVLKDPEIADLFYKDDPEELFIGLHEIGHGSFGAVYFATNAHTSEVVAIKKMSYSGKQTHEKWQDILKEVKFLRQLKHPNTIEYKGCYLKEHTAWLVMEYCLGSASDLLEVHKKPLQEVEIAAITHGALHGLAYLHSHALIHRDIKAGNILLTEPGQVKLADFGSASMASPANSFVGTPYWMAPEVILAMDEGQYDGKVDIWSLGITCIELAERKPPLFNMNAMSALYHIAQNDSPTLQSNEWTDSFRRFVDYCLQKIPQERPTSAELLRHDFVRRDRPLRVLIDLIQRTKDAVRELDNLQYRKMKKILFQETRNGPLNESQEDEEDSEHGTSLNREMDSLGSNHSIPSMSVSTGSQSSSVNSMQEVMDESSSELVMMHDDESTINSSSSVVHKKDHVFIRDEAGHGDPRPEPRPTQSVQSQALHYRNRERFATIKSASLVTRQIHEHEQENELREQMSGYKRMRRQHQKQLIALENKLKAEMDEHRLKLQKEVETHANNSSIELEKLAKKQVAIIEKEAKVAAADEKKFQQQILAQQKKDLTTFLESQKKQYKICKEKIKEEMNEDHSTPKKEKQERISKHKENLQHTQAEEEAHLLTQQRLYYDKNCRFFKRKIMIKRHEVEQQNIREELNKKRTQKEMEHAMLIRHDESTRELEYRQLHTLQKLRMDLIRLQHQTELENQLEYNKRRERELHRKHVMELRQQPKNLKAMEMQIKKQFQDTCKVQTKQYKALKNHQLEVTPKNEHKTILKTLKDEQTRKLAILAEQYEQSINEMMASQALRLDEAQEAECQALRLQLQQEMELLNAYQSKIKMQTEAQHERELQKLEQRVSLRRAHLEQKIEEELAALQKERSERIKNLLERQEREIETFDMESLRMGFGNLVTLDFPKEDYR
The experiment in a line: Inhibition of TAOK3 (unknown origin) at 10 uM after 120 mins P33 radiolabeled kinase activity assay.

Assay [4] deals with BDNF/NT-3 growth factors receptor (Homo sapiens) (UniProt Q16620). The experiment in a line: Inhibition of TRKB (unknown origin) at 10 uM after 120 mins P33 radiolabeled kinase activity assay.
The target in assay [5] is Tyrosine-protein kinase ABL2 (Homo sapiens) (UniProt P42684). The experiment in a line: Inhibition of ABL2 (unknown origin) at 10 uM after 120 mins P33 radiolabeled kinase activity assay.
Assay [6] has as its target T3, NUAK family SNF1-like kinase 1 (Homo sapiens) (UniProt O60285).
T3 sequence (whole entry): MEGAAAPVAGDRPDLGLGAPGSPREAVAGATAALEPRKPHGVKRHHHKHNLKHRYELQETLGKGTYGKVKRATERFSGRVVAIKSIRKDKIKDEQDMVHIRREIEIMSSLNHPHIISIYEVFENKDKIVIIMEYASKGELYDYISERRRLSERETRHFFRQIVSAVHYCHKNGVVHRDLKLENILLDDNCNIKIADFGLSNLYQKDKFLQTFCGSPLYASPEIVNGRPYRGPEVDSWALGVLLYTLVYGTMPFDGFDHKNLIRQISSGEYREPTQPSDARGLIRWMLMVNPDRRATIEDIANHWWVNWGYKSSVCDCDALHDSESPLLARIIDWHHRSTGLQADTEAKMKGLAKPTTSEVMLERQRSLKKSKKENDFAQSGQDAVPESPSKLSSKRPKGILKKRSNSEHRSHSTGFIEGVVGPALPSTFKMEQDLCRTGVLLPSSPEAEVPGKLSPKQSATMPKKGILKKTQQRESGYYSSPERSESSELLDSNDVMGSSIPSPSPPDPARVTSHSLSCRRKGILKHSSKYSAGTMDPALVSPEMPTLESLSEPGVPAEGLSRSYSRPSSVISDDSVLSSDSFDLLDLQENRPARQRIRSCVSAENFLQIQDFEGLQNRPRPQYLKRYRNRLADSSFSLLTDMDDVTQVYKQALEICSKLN
Description: Inhibition of ARK5 (unknown origin) at 10 uM after 120 mins P33 radiolabeled kinase activity assay.

In assay [7] the target is Cyclin-dependent kinase 4/cyclin D1 (Homo sapiens) (UniProt P11802+P24385). Description: Inhibition of CDK4/cyclin D1 (unknown origin) at 10 uM after 120 mins P33 radiolabeled kinase activity assay. It counts as protein-complex assay.

Sequence of Serine/threonine-protein kinase PLK2 (Homo sapiens) (Q9NYY3 whole entry, looked up): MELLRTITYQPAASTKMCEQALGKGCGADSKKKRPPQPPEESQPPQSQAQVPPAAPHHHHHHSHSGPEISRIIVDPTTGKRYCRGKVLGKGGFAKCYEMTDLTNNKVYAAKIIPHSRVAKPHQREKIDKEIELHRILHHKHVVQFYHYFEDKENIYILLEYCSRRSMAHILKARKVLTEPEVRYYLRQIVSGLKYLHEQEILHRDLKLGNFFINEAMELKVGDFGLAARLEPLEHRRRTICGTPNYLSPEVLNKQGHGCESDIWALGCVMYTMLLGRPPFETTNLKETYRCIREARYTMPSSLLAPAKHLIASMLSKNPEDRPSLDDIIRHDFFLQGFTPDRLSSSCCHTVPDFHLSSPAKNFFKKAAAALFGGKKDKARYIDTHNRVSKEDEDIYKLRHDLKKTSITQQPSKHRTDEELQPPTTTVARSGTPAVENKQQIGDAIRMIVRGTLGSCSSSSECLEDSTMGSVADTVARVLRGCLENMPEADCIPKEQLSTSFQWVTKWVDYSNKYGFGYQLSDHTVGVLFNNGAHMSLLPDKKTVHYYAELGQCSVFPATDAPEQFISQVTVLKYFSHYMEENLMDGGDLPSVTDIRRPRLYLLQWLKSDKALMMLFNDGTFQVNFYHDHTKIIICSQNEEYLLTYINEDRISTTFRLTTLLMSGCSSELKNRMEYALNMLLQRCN
Sequence of Tyrosine-protein kinase ABL2 (Homo sapiens) (P42684 whole entry): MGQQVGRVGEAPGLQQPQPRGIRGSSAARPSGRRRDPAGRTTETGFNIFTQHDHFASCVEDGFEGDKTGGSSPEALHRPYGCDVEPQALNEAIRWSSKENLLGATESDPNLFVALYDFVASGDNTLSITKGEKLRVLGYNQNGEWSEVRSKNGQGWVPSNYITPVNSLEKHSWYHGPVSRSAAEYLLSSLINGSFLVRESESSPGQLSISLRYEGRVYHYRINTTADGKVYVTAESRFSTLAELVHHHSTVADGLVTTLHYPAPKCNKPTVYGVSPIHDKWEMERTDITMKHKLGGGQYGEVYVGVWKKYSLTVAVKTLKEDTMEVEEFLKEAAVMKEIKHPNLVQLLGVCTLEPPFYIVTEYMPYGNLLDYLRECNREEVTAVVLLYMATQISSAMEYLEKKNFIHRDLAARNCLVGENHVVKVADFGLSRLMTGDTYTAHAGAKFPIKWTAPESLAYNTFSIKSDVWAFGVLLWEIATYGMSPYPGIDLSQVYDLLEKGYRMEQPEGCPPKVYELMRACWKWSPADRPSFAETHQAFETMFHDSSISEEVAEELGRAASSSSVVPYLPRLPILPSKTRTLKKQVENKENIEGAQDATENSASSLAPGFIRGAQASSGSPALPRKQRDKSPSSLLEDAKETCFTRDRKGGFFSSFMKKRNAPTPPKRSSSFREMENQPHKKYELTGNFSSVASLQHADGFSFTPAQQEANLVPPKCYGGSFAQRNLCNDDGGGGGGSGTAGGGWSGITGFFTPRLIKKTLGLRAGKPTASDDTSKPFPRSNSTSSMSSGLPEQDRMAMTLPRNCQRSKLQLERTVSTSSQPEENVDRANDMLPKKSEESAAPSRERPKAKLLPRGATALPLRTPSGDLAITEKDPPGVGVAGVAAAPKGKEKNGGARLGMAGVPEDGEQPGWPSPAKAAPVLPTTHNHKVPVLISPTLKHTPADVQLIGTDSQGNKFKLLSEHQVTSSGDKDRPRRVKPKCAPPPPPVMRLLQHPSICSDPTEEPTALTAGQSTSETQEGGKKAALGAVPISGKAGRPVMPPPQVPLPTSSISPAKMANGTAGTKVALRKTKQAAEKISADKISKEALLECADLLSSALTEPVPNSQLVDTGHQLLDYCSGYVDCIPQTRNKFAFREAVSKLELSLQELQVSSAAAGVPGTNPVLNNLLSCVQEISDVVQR
Sequence of BDNF/NT-3 growth factors receptor (Homo sapiens) (Q16620 32-822 limits assumed): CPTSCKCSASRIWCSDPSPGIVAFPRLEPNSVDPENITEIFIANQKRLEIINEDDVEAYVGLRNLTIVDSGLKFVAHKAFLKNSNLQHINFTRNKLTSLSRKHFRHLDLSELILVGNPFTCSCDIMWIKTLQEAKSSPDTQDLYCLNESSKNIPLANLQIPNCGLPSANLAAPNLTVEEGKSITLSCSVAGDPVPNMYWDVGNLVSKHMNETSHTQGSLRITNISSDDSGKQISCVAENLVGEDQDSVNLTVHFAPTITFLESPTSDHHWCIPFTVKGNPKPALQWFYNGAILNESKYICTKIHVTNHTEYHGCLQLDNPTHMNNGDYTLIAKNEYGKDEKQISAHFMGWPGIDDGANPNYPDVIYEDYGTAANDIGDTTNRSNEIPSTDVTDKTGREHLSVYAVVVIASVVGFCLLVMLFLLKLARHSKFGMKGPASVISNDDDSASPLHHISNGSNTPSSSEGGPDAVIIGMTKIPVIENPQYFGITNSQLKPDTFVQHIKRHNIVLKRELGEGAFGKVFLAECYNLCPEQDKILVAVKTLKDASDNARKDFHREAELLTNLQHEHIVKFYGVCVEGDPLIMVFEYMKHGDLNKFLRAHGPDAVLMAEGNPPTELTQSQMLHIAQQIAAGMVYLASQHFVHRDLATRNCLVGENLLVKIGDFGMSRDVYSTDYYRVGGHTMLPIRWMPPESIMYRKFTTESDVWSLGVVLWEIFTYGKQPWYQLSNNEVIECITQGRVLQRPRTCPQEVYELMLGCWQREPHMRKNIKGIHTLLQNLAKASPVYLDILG

Broadly, the inhibition is the relative decrease from the control value, in per cent. In the case of `CS(=O)(=O)c1cccc(Nc2nccc(-c3sc(N4CCOCC4)nc3-c3cccc(NS(=O)(=O)c4c(F)cccc4F)c3)n2)c1`, the inhibition in assay [1] came out at 7.04%; in assay [2], 67.7%; in assay [3] it was 26.7%; in assay [4] it was 61.5%; in assay [5], 99.8%; in assay [6], 41.1%. Also, the inhibition in assay [7] worked out at 74.5%.

Turning to `CC(C)(C)c1cc(NC(=O)Nc2ccc(Oc3ccncc3)cc2)no1`, the inhibition in assay [1] is 2.47%; in assay [2], 1.8%; in assay [3], 51%; in assay [4], 96.7%; in assay [5], 90.1%; in assay [6], -0.15%. Further, the inhibition in assay [7] is 43%.

With `COCCNC(=O)c1ccc2c(c1)nc(-c1cnc(-c3ccc(Cl)cc3)[nH]1)n2CCOC`, the inhibition in assay [1] is 1.52%; in assay [2], -0.19%; in assay [3], -0.26%; in assay [4], 4.41%; in assay [5], 59.3%; in assay [6], 7.6%. Further, the inhibition in assay [7] is -1.3%.

(Values after ChEMBL document CHEMBL3627608, “Crystal structures of human RIP2 kinase catalytic domain complexed with ATP-competitive inhibitors: Foundations for understanding inhibitor selectivity” (Bioorg Med Chem, 2015).)
